Laboratory results: ChEMBL document CHEMBL1142141, “Molecular mechanism of flucytosine resistance in Candida lusitaniae: contribution of the FCY2, FCY1, and FUR1 genes to 5-fluorouracil and fluconazole cross-resistance” (2007)
Values after ≈ are worked out from the molar mass of the structure shown.

Experiments:
Type in all cases: functional
Clavispora lusitaniae [1] = experiment: Antifungal activity against Candida lusitaniae 6936 by microdilution assay
Clavispora lusitaniae [2] = experiment: Antifungal activity against Candida lusitaniae 6936 URA3[D95V] derived null mutant fcy2delta::URA3 by microdilution assay
Clavispora lusitaniae [3] = experiment: Antifungal activity against Candida lusitaniae 6936 URA3[D95V] derived null mutant fcy1delta::URA3 by microdilution assay
Clavispora lusitaniae [4] = experiment: Antifungal activity against Candida lusitaniae 6936 URA3[D95V] derived null mutant fur1delta::URA3 by microdilution assay
Clavispora lusitaniae [5] = experiment: Antifungal activity against Candida lusitaniae 6936 revertant fcy2delta::[FCY2-URA3] by microdilution assay
Clavispora lusitaniae [6] = experiment: Antifungal activity against Candida lusitaniae 6936 revertant fcy1delta::[FCY1-URA3] by microdilution assay

SMILES | MIC (Clavispora lusitaniae [1]) [µg/mL] | MIC (Clavispora lusitaniae [2]) [µg/mL] | MIC (Clavispora lusitaniae [3]) [µg/mL] | MIC (Clavispora lusitaniae [4]) [µg/mL] | MIC (Clavispora lusitaniae [5]) [µg/mL] | MIC (Clavispora lusitaniae [6]) [µg/mL]
O=c1[nH]cc(F)c(=O)[nH]1 [FLUOROURACIL] | ≤ 0.5 | ≤ 0.5 | ≤ 0.5 | ≥ 512 | ≤ 0.5 | ≤ 0.5
OC(Cn1cncn1)(Cn1cncn1)c1ccc(F)cc1F [FLUCONAZOLE] | 2 (≈ 6.53 µM) | 2 (≈ 6.53 µM) | 2 (≈ 6.53 µM) | 2 (≈ 6.53 µM) | 2 (≈ 6.53 µM) | 2 (≈ 6.53 µM)
Nc1nc(=O)[nH]cc1F [FLUCYTOSINE] | ≤ 0.5 | 64 (≈ 496 µM) | 128 (≈ 992 µM) | ≥ 512 | ≤ 0.5 | ≤ 0.5
